Source: patent US9308215B2, “Avermectins and milbemycins as anti-mycobacterial agents” (priority 2013, dated 2016)
Converted amounts (≈) assume the structure as drawn. Like-named read-outs stand apart in the source and are kept apart here.

Experiments:
M. tuberculosis Erdman [1] = test: Mouse in vivo TB model, chronic (Balb/C); details: 10 mg/kg bw PO
E. coli = test: microbe, parasite or virus in culture; format: cell-based, Escherichia coli; details: strain O157:H7, WT
M. smegmatis = test: microbe, parasite or virus in culture; format: cell-based, Mycobacterium smegmatis; details: strain mc^2155, WT
M. tuberculosis [2] = test: microbe, parasite or virus in culture; format: cell-based, Mycobacterium tuberculosis
[3] = single dose, clinical studies, cited from earlier work
M. gordonae = test: MIC against mycobacterial species; format: cell-based; details: M. gordonae 324
[4] = Dogs, 250 μg/kg oral; cited from earlier work
[5] = cited from earlier work; for Cmax / AUC / T½: Humans
M. aurum = test: MIC against mycobacterial species; format: cell-based; details: M. aurum
A. baumannii = test: microbe, parasite or virus in culture; format: cell-based, Acinetobacter baumannii; details: strain ATCC 1960, WT
[6] = tested on: representative Gram-positive and Gram-negative bacteria; format: cell-based
M. avium = test: MIC against mycobacterial species; format: cell-based, Mycobacterium avium
[7] = mice; cited from earlier work
[8] = Horses, 200 μg/kg oral; cited from earlier work
M. intracellulare = test: MIC against mycobacterial species; format: cell-based
R. jostii = test: microbe, parasite or virus in culture; format: cell-based, Rhodococcus jostii; details: strain RHA1, WT
[9] = 0.2 mg/kg oral, cited from earlier work
[10] = tested on: M. tuberculosis H37Rv and mc25857 (an MDR isolate); format: cell-based, Mycobacterium tuberculosis; details: in vitro against M. tuberculosis, survival kinetics
P. aeruginosa = test: microbe, parasite or virus in culture; format: cell-based, Pseudomonas aeruginosa; details: strain PA01 (H103), WT
S. lividans = test: microbe, parasite or virus in culture; format: cell-based, Streptomyces lividans; details: strain 1326, WT
[11] = ivermectin: extra-label use; selamectin, moxidectin: therapeutic doses; cited from earlier work
M. chelonae = test: MIC against mycobacterial species; format: cell-based; details: M. chelonae
M. bovis BCG = test: microbe, parasite or virus in culture; format: cell-based, Mycobacterium bovis; details: strain BCG Pasteur, WT
M. phlei = test: MIC against mycobacterial species; format: cell-based; details: M. phlei
S. aureus = test: microbe, parasite or virus in culture; format: cell-based, Staphylococcus aureus; details: strain ATCC 25923, WT
K. rhizophila = test: microbe, parasite or virus in culture; format: cell-based, Kocuria rhizophila; details: WT
M. microti = test: microbe, parasite or virus in culture; format: cell-based
M. tuberculosis Erdman [12] = test: Mouse in vivo TB model, acute (GKO); details: for Toxicity / Log10 cfu reduction (lungs): Acute (GKO), Erdman; for Log10 cfu reduction (lungs): 50/35/15 H2O/PEG300/PG
Protocol: Mice were low-dose aerosol infected (50-100 bacteria). In the acute model, immune compromised mice were left untreated for 13 days to allow the infection to become established before 9 days of consecutive drug therapy was initiated. Drugs were administered by oral gavage. Log10 cfu reductions in the lungs were compared to untreated group. Rifampin was included as an internal control. An ordinary one-way ANOVA Bonferroni's multiple comparisons test was used to calculate p values. A p value<0.05 indicates statistically significant differences compared to the control group (vehicle).
Using an acute TB model, immune compromised mice were low-dose aerosol infected and then left untreated for 13 days to allow the infection to become established before 9 days of consecutive drug therapy was initiated. Drugs were administered orally and Log10 cfu reductions in the lungs were compared to and untreated group (vehicle) to rifampin treatment. […] Rifampicin was included as control.

M. tuberculosis [13] = details: Jayaram et al. 2003; cited from earlier work
[14] = less sensitive strains CI15072, CI12081, BC-MDR2, BC-DS4 and BC-DS5

Structure (SMILES): CC[C@H](C)[C@H]1O[C@]2(CC[C@@H]1C)C[C@@H]1C[C@@H](C/C=C(\C)[C@@H](O[C@H]3C[C@H](OC)[C@@H](O[C@H]4C[C@H](OC)[C@@H](O)[C@H](C)O4)[C@H](C)O3)[C@@H](C)/C=C/C=C3\CO[C@@H]4[C@H](O)C(C)=C[C@@H](C(=O)O1)[C@]34O)O2 [Ivermectin]
- Toxicity (M. tuberculosis Erdman [1]): None
- Log10 cfu reduction (lungs) (M. tuberculosis Erdman [1]; 50/35/15 H2O/PEG300/PG): −0.11 Log10 cfu
- In vitro MIC90 (E. coli): >256 mg/L
- In vitro MIC90 (M. smegmatis): 8 mg/L
- MIC50 (M. tuberculosis [2]; [14]): < 8 mg/L
- MIC90 (M. tuberculosis [2]; [14]): 24 mg/L (≈ 27.4 µM)
- In vitro MIC90 (M. tuberculosis [2]; strain 1254, WT): 8 mg/L
- In vitro MIC90 (M. tuberculosis [2]; strain BC-DS1 (drug-susceptible)): 4 to 16 mg/L
- In vitro MIC90 (M. tuberculosis [2]; strain BC-DS3 (drug-susceptible)): 8 to 16 mg/L
- value in parentheses in MIC90 column (MIC50) (M. tuberculosis [2]; strain BC-DS4): 8 mg/L
- In vitro MIC90 (M. tuberculosis [2]; strain BC-DS4 (drug-susceptible)): 64 mg/L
- value in parentheses in MIC90 column (MIC50) (M. tuberculosis [2]; strain BC-DS5): 8 mg/L
- In vitro MIC90 (M. tuberculosis [2]; strain BC-DS5 (drug-susceptible)): > 128 mg/L
- value in parentheses in MIC90 column (MIC50) (M. tuberculosis [2]; strain BC-MDR2): 8 mg/L
- In vitro MIC90 (M. tuberculosis [2]; strain CDC 1551, WT): 4 to 8 mg/L
- In vitro MIC90 (M. tuberculosis [2]; strain Erdman, WT): 8 mg/L
- In vitro MIC90 (M. tuberculosis [2]; strain H37Rv, WT): 6 mg/L
- dose reported safe in humans [3]: ≤ 120 mg
- dose reported safe in humans ([3]; listed as ivermectin): 120 mg
- MIC (M. gordonae): 4 mg/L (≈ 4.57 µM)
- AUC [4]: 5.6 µg·h/mL
- Cmax [4]: 0.132 µg/mL
- T½ [4]: 80 h
- Cmax ([5]; 12 mg (165 μg/kg) oral): 0.047 µg/mL
- AUC ([5]; 30 mg (347-541 μg/kg) oral): 2.819 µg·h/mL
- Cmax ([5]; 30 mg (347-541 μg/kg) oral): 0.085 µg/mL
- T½ ([5]; 30 mg (347-541 μg/kg) oral): 19 h
- AUC ([5]; 30 mg (fed) oral): 4.564 µg·h/mL
- Cmax ([5]; 30 mg (fed) oral): 0.26 µg/mL
- T½ ([5]; 30 mg (fed) oral): 15 h
- AUC ([5]; 90 mg (1031-1466 μg/kg) oral): 2.91 µg·h/mL
- Cmax ([5]; 90 mg (1031-1466 μg/kg) oral): 0.158 µg/mL
- T½ ([5]; 90 mg (1031-1466 μg/kg) oral): 19 h
- AUC ([5]; 120 mg (1404-2000 μg/kg) oral): 4.547 µg·h/mL
- Cmax ([5]; 120 mg (1404-2000 μg/kg) oral): 0.247 µg/mL
- T½ ([5]; 120 mg (1404-2000 μg/kg) oral): 19 h
- plasma concentrations ([5]; healthy volunteers, 120 mg): ca. 0.25 μg/mL
- maximal concentration in plasma ([5]; standard dose of 12 mg): ca. 50 ng/mL
- MIC (M. aurum): 2 mg/L (≈ 2.29 µM)
- In vitro MIC90 (A. baumannii): >256 mg/L
- Inhibitory effects [6]: not observed
- MIC (M. avium; M. avium 702): >256 mg/L
- MIC (M. avium; M. avium 715): >256 mg/L
- MIC (M. avium; M. avium ATCC 25291): >128 mg/L
- LD50 [7]: 25 mg/kg body weight
- AUC [8]: 3.184 µg·h/mL
- Cmax [8]: 0.044 µg/mL
- T½ [8]: 20 h
- MIC (M. intracellulare; M. intracellulare 1403 ATCC35761): 4 mg/L (≈ 4.57 µM)
- MIC (M. intracellulare; M. intracellulare 1403 Trudeau): 4 mg/L (≈ 4.57 µM)
- MIC (M. intracellulare; M. intracellulare D673): 8 mg/L (≈ 9.14 µM)
- MIC (M. intracellulare; M. intracellulare FM): 8 mg/L (≈ 9.14 µM)
- In vitro MIC90 (R. jostii): >256 mg/L
- Cmax ([9]; Mouse (lung)): 0.02 µg/mL
- AUC ([9]; Mouse (plasma)): 0.573 µg·h/mL
- Cmax ([9]; Mouse (plasma)): 0.02 µg/mL
- T½ ([9]; Mouse (plasma)): 9.3 h
- bactericidal or bacteriostatic [10]: Bactericidal
- In vitro MIC90 (P. aeruginosa): >256 mg/L
- In vitro MIC90 (S. lividans): >256 mg/L
- toxicity in dogs lacking MDR1 P-glycoprotein / homozygous MDR1 mutation [11]: severe signs of neurotoxicity
- MIC (M. chelonae): 4 mg/L (≈ 4.57 µM)
- In vitro MIC90 (M. bovis BCG): 4 mg/L
- MIC (M. phlei): 32 mg/L (≈ 36.6 µM)
- In vitro MIC90 (S. aureus): >256 mg/L
- In vitro MIC90 (K. rhizophila): >256 mg/L
- MIC (M. microti; M. microti 1601): 4 mg/L (≈ 4.57 µM)
- MIC (M. microti; M. microti 1608): 256 mg/L (≈ 293 µM)
- activity in vivo in acute TB model (M. tuberculosis Erdman [12]; 5 and 10 mg/kg doses, oral, Erdman 107): did not show activity
- Toxicity (M. tuberculosis Erdman [12]; 5 mg/kg bw PO): None
- Log10 cfu reduction (lungs) (M. tuberculosis Erdman [12]; 5 mg/kg bw PO): 0.32 Log10 cfu
- Toxicity (M. tuberculosis Erdman [12]; 10 mg/kg bw PO): None
- Log10 cfu reduction (lungs) (M. tuberculosis Erdman [12]; 10 mg/kg bw PO): 0.4 Log10 cfu

Structure (SMILES): CO[C@H]1/C=C/O[C@@]2(C)Oc3c(C)c(O)c4c(O)c(c(/C=N/N5CCN(C)CC5)c(O)c4c3C2=O)NC(=O)/C(C)=C\C=C\[C@H](C)[C@H](O)[C@@H](C)[C@@H](O)[C@@H](C)[C@H](OC(C)=O)[C@@H]1C [Rifampin]
- AUC24/MIC value required for 1 log 10 CFU/ml reduction, relative to avermectins and milbemycins (M. tuberculosis [13]): more than 10 times higher
